Eleven compounds from patent publication US20100227859A1, “TRICYCLIC COMPOUNDS AS MATRIX METALLOPROTEINASE INHIBITORS” (priority 2007, published 2010) can be followed below.

A value given as a limit tells only on which side of the number the result lay.

purified human MMP-12 enzyme, sequence (P39900 106-470): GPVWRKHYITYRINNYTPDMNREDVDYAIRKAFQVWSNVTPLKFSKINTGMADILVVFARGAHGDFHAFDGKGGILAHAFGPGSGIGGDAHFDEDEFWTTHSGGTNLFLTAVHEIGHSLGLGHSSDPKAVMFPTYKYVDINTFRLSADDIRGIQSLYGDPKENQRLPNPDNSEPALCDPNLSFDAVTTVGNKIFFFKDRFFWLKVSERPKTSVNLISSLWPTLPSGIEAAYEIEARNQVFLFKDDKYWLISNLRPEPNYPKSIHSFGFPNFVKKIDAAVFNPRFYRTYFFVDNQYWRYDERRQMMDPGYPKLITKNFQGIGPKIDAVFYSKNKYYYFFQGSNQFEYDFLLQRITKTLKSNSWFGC

In the assay the target is purified human MMP-12 enzyme (Homo sapiens, UniProt P39900). Briefly: MMP-12 FRET assay. The assay is classed as biochemical. Conditions: substrate 20 μM, room temperature. In outline:
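Enzyme pre-incubated 30 min at room temperature with compound in 50 mM HEPES pH 7.4, 100 mM NaCl, 5 mM CaCl2, 0.005% Brij-35, 10% DMSO final. Reaction started with 20 μM MCA-Pro-Leu-Gly-Leu-Dpa(DNP)-Ala-Arg, and initial cleavage rate read over 30 min (λex 325, λem 395 nm). IC50 from slope-factor inhibition fit.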
In turn, `CC(C)[C@@H](NS(=O)(=O)c1ccc2oc3cc(-c4noc(-c5ccccc5)n4)ccc3c2c1)C(=O)O` [Compound 150, (R)-3-methyl-2-(7-(5-phenyl-1,2,4-oxadiazol-3-yl)dibenzo[b,d]furan-2-sulfonamido)butanoic acid] had an IC50 of 5 nM.
Take `CC(C)[C@@H](NS(=O)(=O)c1ccc2oc3cc(-c4noc(C(F)(F)F)n4)ccc3c2c1)C(=O)O` [Compound 141, (R)-3-methyl-2-(7-(5-(trifluoromethyl)-1,2,4-oxadiazol-3-yl)dibenzo[b,d]furan-2-sulfonamido)butanoic acid]: the IC50 is 14 nM.
Next, `CC(C)[C@H](NS(=O)(=O)c1ccc2c(c1)oc1ccc(-c3csc(Cl)n3)cc12)C(=O)O` [Compound 180, (S)-2-(8-(2-chlorothiazol-4-yl)dibenzo[b,d]furan-3-sulfonamido)-3-methylbutanoic acid]: below 1.5 nM; `Cc1csc(-c2ccc3oc4cc(S(=O)(=O)N[C@H](C(=O)O)C(C)C)ccc4c3c2)c1` [Compound 33, (S)-3-methyl-2-(8-(4-methylthiophen-2-yl)dibenzo[b,d]furan-3-sulfonamido)butanoic acid]: below 1.5 nM.
`Cc1nn(C)c(C)c1-c1ccc2c(c1)oc1ccc(S(=O)(=O)N[C@@H](C(=O)O)C(C)C)cc12` [Compound 174, (R)-3-methyl-2-(7-(1,3,5-trimethyl-1H-pyrazol-4-yl)dibenzo[b,d]furan-2-sulfonamido)butanoic acid] registered an IC50 of 227 nM.
On to `CC(C)c1nc(-c2ccc3c(c2)oc2cc(S(=O)(=O)N[C@H](C(=O)O)C(C)C)ccc23)no1` [Compound 154, (S)-2-(7-(5-isopropyl-1,2,4-oxadiazol-3-yl)dibenzo[b,d]furan-3-sulfonamido)-3-methylbutanoic acid], for which the IC50 turned out to be 32 nM.
Next, `CONC(=N)c1ccc2oc3cc(S(=O)(=O)N[C@H](C(=O)O)C(C)C)ccc3c2c1` [Compound 108, (S)-2-(8-(N-methoxycarbamimidoyl)dibenzo[b,d]furan-3-sulfonamido)-3-methylbutanoic acid]: 2 nM.
The compound `CC(C)[C@H](NS(=O)(=O)c1ccc2c(c1)sc1ccc(-c3ccncc3)cc12)C(=O)O` [Compound 56, (S)-3-methyl-2-(8-(pyridin-4-yl)dibenzo[b,d]thiophene-3-sulfonamido)butanoic acid] gave an IC50 of 8.4 nM. This IC50 is about 4.2-fold higher than that of the compound before.
Take `Cc1ccc(-c2ccc3c(c2)oc2cc(S(=O)(=O)N[C@H](C(=O)O)C(C)C)ccc23)s1` [Compound 142, (S)-3-methyl-2-(7-(5-methylthiophen-2-yl)dibenzo[b,d]furan-3-sulfonamido)butanoic acid]: the IC50 was 2.5 nM.
In the case of `Cc1csc(-c2ccc3sc4cc(S(=O)(=O)N[C@H](C(=O)O)C(C)C)ccc4c3c2)c1` [Compound 62, (S)-3-methyl-2-(8-(4-methylthiophen-2-yl)dibenzo[b,d]thiophene-3-sulfonamido)butanoic acid], 44 nM corresponded to half-maximal inhibition (IC50).
Compound `CC(C)[C@@H](NS(=O)(=O)c1ccc2oc3cc(-c4cccs4)ccc3c2c1)C(=O)O` [Compound 118, (R)-3-methyl-2-(7-(thiophen-2-yl)dibenzo[b,d]furan-2-sulfonamido)butanoic acid] had an IC50 of 0.6 nM.
